Source: patent publication US12545685B2 (Daiichi Sankyo Company, Limited, priority 2011, dated 2026)

Target: T1, Mdm2/p53 binding (GST-Mdm2 / His-p53) (Homo sapiens, UniProt Q00987, L33E)
T1 construct: Mdm2 partial protein having Mdm2 amino acids at positions 25 to 108
Experiment: Mdm2/p53 binding assay (HTRF, His-p53 and GST-Mdm2)
Conditions: His-p53 (aa 1-132) and GST-Mdm2 (aa 25-108, L33E) 6.25 nM each; 25°C, 1 hour; values given as ranges
Outline: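 Binding was detected by HTRF (ex 320 nm, em 620/665 nm) after 1 h at 25 °C, using Eu-cryptate anti-GST and XL665 anti-His antibodies. The protein pair was GST-Mdm2 (residues 25–108, L33E) with His-p53 (residues 1–132), each 6.25 nM in the protein dilution. T/C used no-compound control and no-p53 background, and IC50 came from sigmoid fitting.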

T1 sequence (Q00987 25-108 L33E): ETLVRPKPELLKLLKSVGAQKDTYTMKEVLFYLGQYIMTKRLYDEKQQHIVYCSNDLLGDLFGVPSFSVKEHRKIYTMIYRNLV

CCN(C)C(=O)[C@@H]1CC[C@@H](NC(=O)[C@@H]2NC3(CCC(C)(C)CC3)[C@@]3(C(=O)Nc4cc(Cl)ccc43)[C@H]2c2ccnc(Cl)c2F)CO1 [Example 125, (3′R, 4′S,5′R)-6″-chloro-4′-(2-chloro-3-fluoropyridin-4-yl)-N-{(3R,6S)-6-[ethyl(methyl)carbamoyl]tetrahydro-2H-pyran-3-yl}-4,4-dimethyl-2″-oxo-1″,2″-dihydrodispiro[cyclohexane-1,2′-pyrrolidine-3′,3″-indole]-5′-carboxamide] and COCCN(C)C(=O)[C@@H]1CC[C@@H](NC(=O)[C@@H]2NC3(CCC(C)(C)CC3)[C@@]3(C(=O)Nc4cc(Cl)ccc43)[C@H]2c2ccnc(Cl)c2F)CO1 [Example 127, (3′R, 4′S,5′R)-6″-chloro-4′-(2-chloro-3-fluoropyridin-4-yl)-N-{(3R,6S)-6-[(2-methoxyethyl)(methyl)carbamoyl]tetrahydro-2H-pyran-3-yl}-4,4-dimethyl-2″-oxo-1″,2″=dihydrodispiro[cyclohexane-1,2′-pyrrolidine-3′,3″-indole]-5′-carboxamide] fall in the same range of IC50: 1 to 50 nM for the first, 1 to 50 nM for the second.

CC1(C)CCC2(CC1)N[C@@H](C(=O)N[C@@H]1CC[C@@H](C(=O)NCCF)OC1)[C@H](c1ccnc(Cl)c1F)[C@]21C(=O)Nc2cc(Cl)ccc21 [Example 126, (3′R, 4′S,5′R)-6″-chloro-4′-(2-chloro-3-fluoropyridin-4-yl)-N-{(3R,6S)-6-[{2-fluoroethyl}carbamoyl]tetrahydro-2H-pyran-3-yl}-4,4-dimethyl-2″-oxo-1″,2″-dihydrodispiro[cyclohexane-1,2′-pyrrolidine-3′,3″-indole]-5′-carboxamide] and COCCNC(=O)[C@@H]1CC[C@@H](NC(=O)[C@@H]2NC3(CCC(C)(C)CC3)[C@@]3(C(=O)Nc4cc(Cl)ccc43)[C@H]2c2ccnc(Cl)c2F)CO1 [Example 128, (3′R, 4′S,5′R)-6″-chloro-4′-(2-chloro-3-fluoropyridin-4-yl)-N-{(3R,6S)-6-[(2-methoxyethyl)carbamoyl]tetrahydro-2H-pyran-3-yl}-4,4-dimethyl-2″-oxo-1″,2″-dihydrodispiro[cyclohexane-1,2′-pyrrolidine-3′,3″-indole]-5′-carboxamide] fall in the same range of IC50: 1 to 50 nM for the first, 1 to 50 nM for the second.

CO[C@@H]1C[C@@H](NC(=O)[C@@H]2NC3(CC(CF)(CF)C3)[C@@]3(C(=O)Nc4cc(Cl)ccc43)[C@H]2c2cccc(Cl)c2F)CO[C@@H]1CO [Example 129, (3′R,4′S,5′R)-6″-chloro-4′-(3-chloro-2-fluorophenyl)-3,3-bis(fluoromethyl)-N-[(3R,5R,6R)-6-(hydroxymethyl)-5-methoxytetrahydro-2H-pyran-3-yl]-2″-oxo-1″,2″-dihydrodispiro[cyclobutane-1,2′-pyrrolidine-3′,3″-indole]-5′-carboxamide] and NC(=O)[C@H]1C[C@H](NC(=O)[C@@H]2NC3(CC(CF)(CF)C3)[C@@]3(C(=O)Nc4cc(Cl)ccc43)[C@H]2c2cccc(Cl)c2F)C1 [Example 134, (3′R, 4′S,5′R)—N-(trans-3-carbamoylcyclobutyl)-6″-chloro-4′-(3-chloro-2-fluorophenyl)-3,3-bis(fluoromethyl)-2″-oxo-1″,2″-dihydrodispiro[cyclobutane-1,2′-pyrrolidine-3′,3″-indole]-5′-carboxamide] fall in the same range of IC50: 1 to 50 nM for the first, 1 to 50 nM for the second.

First: CC1(C)CCC2(CC1)N[C@@H](C(=O)N[C@H]1CC[C@H](c3nnc(CO)o3)CC1)[C@H](c1ccnc(Cl)c1F)[C@]21C(=O)Nc2cc(Cl)ccc21 [Example 130, (3′R, 4′S,5′R)-6″-chloro-4′-(2-chloro-3-fluoropyridin-4-yl)-N-{trans-4-[5-(hydroxymethyl)-1,3,4-oxadiazol-2-yl]cyclohexyl}-4,4-dimethyl-2″-oxo-1″,2″-dihydrodispiro[cyclohexane-1,2′-pyrrolidine-3′,3″-indole]-5′-carboxamide]
Second: C[C@@H](O)c1nnc([C@H]2CC[C@H](NC(=O)[C@@H]3NC4(CCC(C)(C)CC4)[C@@]4(C(=O)Nc5cc(Cl)ccc54)[C@H]3c3ccnc(Cl)c3F)CC2)o1 [Example 132, (3′R, 4′S, S′R)-6″-chloro-4′-(2-chloro-3-fluoropyridin-4-yl)-N-(trans-4-{5-[(1R)-1-hydroxyethyl]-1,3,4-oxadiazol-2-yl}cyclohexyl)-4,4-dimethyl-2″-oxo-1″,2″-dihydrodispiro[cyclohexane-1,2′-pyrrolidine-3′,3″-indole]-5′-carboxamide]
The IC50 of the first is lower: 1 to 50 nM for the first, 50 to 100 nM for the second. The first is the more potent here.

First: O=C(N[C@H]1CC[C@H](c2nnc(CO)o2)CC1)[C@@H]1NC2(CC(CF)(CF)C2)[C@@]2(C(=O)Nc3cc(Cl)ccc32)[C@H]1c1cccc(Cl)c1F [Example 131, (3′R, 4′S,5′R)-6″-chloro-4′-(3-chloro-2-fluorophenyl)-3,3-bis(fluoromethyl)-N-[trans-4-[5-(hydroxymethyl)-1,3,4-oxadiazol-2-yl]cyclohexyl]-2″-oxo-1″,2″-dihydrodispiro[cyclobutane-1,2′-pyrrolidine-3′,3″-indole]-5′-carboxamide]
Second: O=C(N[C@@H]1CC[C@@H](c2nnco2)OC1)[C@@H]1NC2(CC(CF)(CF)C2)[C@@]2(C(=O)Nc3cc(Cl)ccc32)[C@H]1c1cccc(Cl)c1F [Example 136, (3′R, 4′S,5′R)-6″-chloro-4′-(3-chloro-2-fluorophenyl)-3,3-bis(fluoromethyl)-N-[(3R,6S)-6-(1,3,4-oxadiazol-2-yl)tetrahydro-2H-pyran-3-yl]-2″-oxo-1″,2″-dihydrodispiro[cyclobutane-1,2′-pyrrolidine-3′,3″-indole]-5′-carboxamide]
The IC50 of the first is higher: 50 to 100 nM for the first, 1 to 50 nM for the second. The second is the more potent here.

COC[C@@H]1CC[C@@H](NC(=O)[C@@H]2NC3(CCC(C)(C)CC3)[C@@]3(C(=O)Nc4cc(Cl)ccc43)[C@H]2c2ccnc(Cl)c2F)CO1 [Example 133, (3′R, 4′S,5′R)-6″-chloro-4′-(2-chloro-3-fluoropyridin-4-yl)-N-[(3R,6S)-6-(methoxymethyl)tetrahydro-2H-pyran-3-yl]-4,4-dimethyl-2″-oxo-1″,2″-dihydrodispiro[cyclohexane-1,2′-pyrrolidine-3′,3″-indole]-5′-carboxamide] and CN(C)C(=O)[C@@H]1CC[C@@H](NC(=O)[C@@H]2NC3(CCC(C)(C)CC3)[C@@]3(C(=O)Nc4cc(Cl)ccc43)[C@H]2c2ccnc(Cl)n2)CO1 [Example 140, (3′R, 4′R, 5′R)-6″-chloro-4′-(2-chloropyrimidin-4-yl)-N-[(3R,6S)-6-(dimethylcarbamoyl)tetrahydro-2H-pyran-3-yl]-4,4-dimethyl-2″-oxo-1″,2″-dihydrodispiro[cyclohexane-1,2′=pyrrolidine-3′,3″-indole]-5′-carboxamide] fall in the same range of IC50: 50 to 100 nM for the first, 50 to 100 nM for the second.

First: CC(C)(O)[C@@H]1CC[C@@H](NC(=O)[C@@H]2NC3(CC(CF)(CF)C3)[C@@]3(C(=O)Nc4cc(Cl)ccc43)[C@H]2c2cccc(Cl)c2F)CO1 [Example 135, (3′R, 4′S,5′R)-6″-chloro-4′-(3-chloro-2-fluorophenyl)-3,3-bis(fluoromethyl)-N-[(3R,6S)-6-(1-hydroxy-1-methylethyl)tetrahydro-2H-pyran-3-yl]-2″-oxo-1″,2″-dihydrodispiro[cyclobutane-1,2′-pyrrolidine-3′,3″-indole]-5′-carboxamide]
Second: CCNC(=O)[C@@H]1CC[C@@H](NC(=O)[C@@H]2NC3(CC(CF)(CF)C3)[C@@]3(C(=O)Nc4cc(Cl)ccc43)[C@H]2c2cccc(Cl)c2F)CO1 [Example 141]
The IC50 of the first is higher: 100 to 500 nM for the first, 1 to 50 nM for the second.

O=C(NC1CCOCC1)[C@@H]1CC[C@@H](NC(=O)[C@@H]2NC3(CC(CF)(CF)C3)[C@@]3(C(=O)Nc4cc(Cl)ccc43)[C@H]2c2cccc(Cl)c2F)CO1 [Example 137, (3′R, 4′S,5′R)-6″-chloro-4′-(3-chloro-2-fluorophenyl)-3,3-bis(fluoromethyl)-2″-oxo-N-[(3R,6S)-6-(tetrahydro-2H-pyran-4-ylcarbamoyl)tetrahydro-2H-pyran-3-yl]-1″,2″-dihydrodispiro[cyclobutane-1,2′-pyrrolidine-3′,3″-indole]-5′-carboxamide] and O=C(NCCF)[C@@H]1CC[C@@H](NC(=O)[C@@H]2NC3(CC(CF)(CF)C3)[C@@]3(C(=O)Nc4cc(Cl)ccc43)[C@H]2c2cccc(Cl)c2F)CO1 [Example 138, (3′R, 4′S,5′R)-6″-chloro-4′-(3-chloro-2-fluorophenyl)-N-{(3R,6S)-6-[(2-fluoroethyl)carbamoyl]tetrahydro-2H-pyran-3-yl}-3,3-bis(fluoromethyl)-2″-oxo-1″,2″-dihydrodispiro[cyclobutane-1,2′-pyrrolidine-3′,3″-indole]-5′-carboxamide] fall in the same range of IC50: 50 to 100 nM for the first, 50 to 100 nM for the second.

COCCN(C)C(=O)[C@@H]1CC[C@@H](NC(=O)[C@@H]2NC3(CC(CF)(CF)C3)[C@@]3(C(=O)Nc4cc(Cl)ccc43)[C@H]2c2cccc(Cl)c2F)CO1 [Example 139, (3′R, 4′S,5′R)-6″-chloro-4′-(3-chloro-2-fluorophenyl)-3,3-bis(fluoromethyl)-N-[(3R,6S)-6-[(2-methoxyethyl)(methyl)carbamoyl]tetrahydro-2H-pyran-3-yl]-2″-oxo-1″,2″-dihydrodispiro[cyclobutane-1,2′-pyrrolidine-3′,3″-indole]-5′-carboxamide] and COCCNC(=O)[C@@H]1CC[C@@H](NC(=O)[C@@H]2NC3(CC(CF)(CF)C3)[C@@]3(C(=O)Nc4cc(Cl)ccc43)[C@H]2c2cccc(Cl)c2F)CO1 [Example 142, (3′R, 4′S,5′R)-6″-chloro-4′-(3-chloro-2-fluorophenyl)-3,3-bis(fluoromethyl)-N-{(3R,6S)-6-[(2-methoxyethyl)carbamoyl]tetrahydro-2H-pyran-3-yl}-2″-oxo-1″,2″-dihydrodispiro[cyclobutane-1,2′-pyrrolidine-3′,3″-indole]-5′-carboxamide] fall in the same range of IC50: 1 to 50 nM for the first, 1 to 50 nM for the second.
